Experiments:
[1] = target: T1, Protein farnesyltransferase (Homo sapiens, UniProt P49354+P49356); assay: Inhibition of recombinant human farnesyltransferase using Dansyl-GCVLS as substrate measured for 15 mins by fluorimetric analysis; type: protein-complex assay
[2] = target: T1, Protein farnesyltransferase; assay: Inhibition of recombinant human farnesyltransferase using Dansyl-GCVLS as substrate at 100 uM measured for 15 mins by fluorimetric analysis relative to control; type: protein-complex assay

**Q.** `CCOC(=O)/C(C#N)=C/[C-](C(=O)c1ccc(OC)c(OC)c1)[n+]1ccc(OC)cc1` was tested. Which IC50 [1] did it give?
**A.** The IC50 was 20.8 µM.

**Q.** What about the inhibition [2] of the same compound?
**A.** The inhibition was 88%.

**Q.** How did the IC50 [1] turn out when `CN(C)c1cc[n+]([C-](C=C(C#N)C#N)C(=O)c2ccc(Br)cc2)cc1` was run?
**A.** Its IC50 is 19.7 µM.

**Q.** What about the inhibition [2] of the same compound?
**A.** Its inhibition is 91%.

**Q.** How did the IC50 [1] turn out when `CCOC(=O)/C(C#N)=C/[C-](C(=O)c1ccc2c(c1)NC(=O)CO2)[n+]1ccc(N(C)C)cc1` was run?
**A.** The IC50 was 55.2 µM.

**Q.** What about the inhibition [2] of the same compound?
**A.** The inhibition was 62%.

**Q.** What does the source list for `COc1cc[n+]([C-](C=C(C#N)C#N)C(=O)c2ccc(OC)c(OC)c2)cc1`?
**A.** IC50 [1]: 31.4 µM; inhibition [2]: 77%

**Q.** For `CCOC(=O)/C(C#N)=C/[C-](C(=O)c1ccc(C)cc1)[n+]1ccc(N(C)C)cc1`, which IC50 [1] is on record?
**A.** The IC50 was 43.6 µM.

**Q.** What about the inhibition [2] of the same compound?
**A.** The inhibition was 65%.

**Q.** For `CN(C)c1cc[n+]([C-](C=C(C#N)C#N)C(=O)c2ccc(C#N)cc2)cc1`, which IC50 [1] is on record?
**A.** The IC50 was 23.9 µM.

**Q.** What about the inhibition [2] of the same compound?
**A.** The inhibition was 77%.

**Q.** What does the source list for `CN(C)c1cc[n+]([C-](C=C(C#N)C#N)C(=O)c2ccccc2)cc1`?
**A.** IC50 [1]: 46.2 µM; inhibition [2]: 79%

**Q.** How did the IC50 [1] turn out when `CCOC(=O)/C(C#N)=C/[C-](C(=O)c1ccc(F)cc1)[n+]1ccc(N(C)C)cc1` was run?
**A.** The IC50 was 62.3 µM.

**Q.** And the inhibition [2]?
**A.** Its inhibition is 64%.

**Q.** For `CCOC(=O)/C(C#N)=C/[C-](C(=O)c1ccc(Br)cc1)[n+]1ccc(N(C)C)cc1`, which IC50 [1] is on record?
**A.** The IC50 was 36.4 µM.

**Q.** And the inhibition [2]?
**A.** Its inhibition is 100%.

**Q.** How did the IC50 [1] turn out when `CN(C)c1cc[n+]([C-](C=C(C#N)C#N)C(=O)c2ccc3c(c2)NC(=O)CO3)cc1` was run?
**A.** Its IC50 is 25.8 µM.

**Q.** And the inhibition [2]?
**A.** Its inhibition is 92%.

**Q.** For `CCOC(=O)/C(C#N)=C/[C-](C(=O)c1ccc(Cl)cc1)[n+]1ccc(N(C)C)cc1`, which IC50 [1] is on record?
**A.** The IC50 was 31.9 µM.

**Q.** And the inhibition [2]?
**A.** The inhibition was 100%.

**Q.** For `CCOC(=O)/C(C#N)=C/[C-](C(=O)c1ccc(OC)cc1)[n+]1cc(C)cc(C)c1`, which inhibition [2] is on record?
**A.** The inhibition was 49%.

**Q.** How did the IC50 [1] turn out when `CN(C)c1cc[n+]([C-](C=C(C#N)C#N)C(=O)c2ccc(F)cc2)cc1` was run?
**A.** The IC50 was 23.6 µM.

**Q.** And the inhibition [2]?
**A.** Its inhibition is 81%.

**Q.** How did the IC50 [1] turn out when `CCOC(=O)/C(C#N)=C/[C-](C(=O)c1ccccc1)[n+]1ccc(N(C)C)cc1` was run?
**A.** The IC50 was 30.9 µM.

**Q.** And the inhibition [2]?
**A.** Its inhibition is 68%.

**Q.** With `Cc1cc[n+]([C-](C=C(C#N)C#N)C(=O)c2ccccc2)cc1` as the compound, how does the inhibition [2] read?
**A.** The inhibition was 29%.

**Q.** Which results are given for `COc1ccc(C(=O)[C-](C=C(C#N)C#N)[n+]2ccc(N(C)C)cc2)cc1`?
**A.** IC50 [1]: 22.2 µM; inhibition [2]: 99%

**Q.** Which IC50 [1] does the source give for `COc1ccc(C(=O)[C-](C=C(C#N)C#N)[n+]2ccc(OC)cc2)cc1` here?
**A.** The IC50 was 27.3 µM.

**Q.** And the inhibition [2]?
**A.** Its inhibition is 83%.

**Q.** How did the IC50 [1] turn out when `COc1cc(C(=O)[C-](C=C(C#N)C#N)[n+]2cc(C)cc(C)c2)cc(OC)c1OC` was run?
**A.** The IC50 was 20.1 µM.

**Q.** What about the inhibition [2] of the same compound?
**A.** Its inhibition is 82%.

**Q.** `CCOC(=O)/C(C#N)=C/[C-](C(=O)c1ccccc1)[n+]1ccc(C)cc1` was tested. Which inhibition [2] did it give?
**A.** Its inhibition is 45%.

**Q.** `CN(C)c1cc[n+]([C-](C=C(C#N)C#N)C(=O)N2c3ccccc3Sc3ccccc32)cc1` was tested. Which IC50 [1] did it give?
**A.** Its IC50 is 4.67 µM.

**Q.** With `CN(C)c1cc[n+]([C-](C=C(C#N)C#N)C(=O)c2ccc(Cl)cc2)cc1` as the compound, how does the IC50 [1] read?
**A.** Its IC50 is 12.5 µM.

**Q.** And the inhibition [2]?
**A.** Its inhibition is 95%.

**Q.** What does the source list for `COc1ccc(C(=O)[C-](C=C(C#N)C#N)[n+]2cc(C)cc(C)c2)cc1`?
**A.** IC50 [1]: 27.4 µM; inhibition [2]: 75%

**Q.** Which IC50 [1] does the source give for `CCOC(=O)/C(C#N)=C/[C-](C(=O)c1cc(OC)c(OC)c(OC)c1)[n+]1ccc(N(C)C)cc1` here?
**A.** The IC50 was 48 µM.

**Q.** And the inhibition [2]?
**A.** Its inhibition is 73%.

**Q.** For `CCOC(=O)/C(C#N)=C/[C-](C(=O)c1ccc(OC)cc1)[n+]1ccc(OC)cc1`, which inhibition [2] is on record?
**A.** Its inhibition is 51%.

**Q.** `Cc1ccc(C(=O)[C-](C=C(C#N)C#N)[n+]2ccc(N(C)C)cc2)cc1` was tested. Which IC50 [1] did it give?
**A.** Its IC50 is 14.5 µM.

**Q.** And the inhibition [2]?
**A.** The inhibition was 89%.

**Q.** How did the IC50 [1] turn out when `CCOC(=O)/C(C#N)=C/[C-](C(=O)c1ccc(C#N)cc1)[n+]1ccc(N(C)C)cc1` was run?
**A.** The IC50 was 46.2 µM.

**Q.** And the inhibition [2]?
**A.** The inhibition was 69%.

**Q.** `COc1cc(C(=O)[C-](C=C(C#N)C#N)[n+]2ccc(N(C)C)cc2)cc(OC)c1OC` was tested. Which IC50 [1] did it give?
**A.** The IC50 was 15.6 µM.

**Q.** What about the inhibition [2] of the same compound?
**A.** The inhibition was 93%.

**Q.** What does the source list for `CCOC(=O)/C(C#N)=C/[C-](C(=O)c1cc(OC)c(OC)c(OC)c1)[n+]1cc(C)cc(C)c1`?
**A.** IC50 [1]: 43.5 µM; inhibition [2]: 90%

**Q.** Which IC50 [1] does the source give for `CCOC(=O)/C(C#N)=C/[C-](C(=O)c1ccc(OC)cc1)[n+]1ccc(N(C)C)cc1` here?
**A.** Its IC50 is 62.7 µM.

**Q.** What about the inhibition [2] of the same compound?
**A.** Its inhibition is 64%.

**Q.** What does the source list for `CN(C)c1cc[n+]([C-](C=C(C#N)C#N)C(=O)c2ccc([N+](=O)[O-])cc2)cc1`?
**A.** IC50 [1]: 28.2 µM; inhibition [2]: 88%

Source: ChEMBL document CHEMBL2434887, “Synthesis and biological evaluation of a new series of N-ylides as protein farnesyltransferase inhibitors” (Bioorg Med Chem Lett, 2013)
